According to patent US11780821B2, “Inhibitors of fibroblast activation protein” (Praxis Biotech LLC, priority 2017, dated 2023):

How the values were obtained:
[1] = tested on: MC38 mouse colon cancer cell line; experiment: Tumor inhibition in vivo (MC38 tumor in C57/BL6 mice); settings: 50 mg/kg orally twice daily from day 7 to day 22; no statistical significance observed
Description: Female C57/BL6 mice (approximately 8-9 weeks old; 20-21 gr) obtained from the vivarium of Fundación Ciencia & Vida (Santiago, Chile) were maintained in a temperature-controlled room with 12/12 hour light/dark schedule with food and water ad libitum. The mice were acclimated for a minimum period of 4 days upon arrival at the testing facility.
MC38 mouse colon cancer cell line was maintained as monolayer culture in DMEM-F12 (Cat. No.: SH30023.01, Hyclone) supplemented with 10% fetal bovine serum (Cat. No.: 16000, Gibco) and penicillin/streptomycin (Cat. No.: 15140122, Gibco) at 37° C. in an atmosphere with 5% CO2. The cells were routinely subcultured every 3 days to maintain growth at exponential phase. […] Cell pellet was resuspended in approximately 10× volume of cell culture medium and counted. Cell viability was determined to be >95% by trypan blue staining.
At the day of inoculation, female C57/B16 mice (n=15 total) were weighed and identified by marking the tail with numbers using a non-toxic permanent marker. […] Tumors were measured three times per week with digital calipers and tumors volumes, expressed in mm^3, were calculated with the following formula: Tumor volume (mm^3)=(a×b^2)/2 […]
Seven days after inoculation, mean tumor volume was about 100 mm^3. […] Body weight of the mice and tumor volume was recorded two or three times per week for a total of 22 days. […]

[2] = target: T1, plasma FAP activity (Rattus norvegicus, UniProt A0A9K3Y732); experiment: rhFGF21 administration in conjunction with FAP inhibition in vivo; design: species or system Sprague Dawley rats
T1 construct: from tissue; host or cells: rat plasma after oral dosing
T1 sequence (A0A9K3Y732 1-761): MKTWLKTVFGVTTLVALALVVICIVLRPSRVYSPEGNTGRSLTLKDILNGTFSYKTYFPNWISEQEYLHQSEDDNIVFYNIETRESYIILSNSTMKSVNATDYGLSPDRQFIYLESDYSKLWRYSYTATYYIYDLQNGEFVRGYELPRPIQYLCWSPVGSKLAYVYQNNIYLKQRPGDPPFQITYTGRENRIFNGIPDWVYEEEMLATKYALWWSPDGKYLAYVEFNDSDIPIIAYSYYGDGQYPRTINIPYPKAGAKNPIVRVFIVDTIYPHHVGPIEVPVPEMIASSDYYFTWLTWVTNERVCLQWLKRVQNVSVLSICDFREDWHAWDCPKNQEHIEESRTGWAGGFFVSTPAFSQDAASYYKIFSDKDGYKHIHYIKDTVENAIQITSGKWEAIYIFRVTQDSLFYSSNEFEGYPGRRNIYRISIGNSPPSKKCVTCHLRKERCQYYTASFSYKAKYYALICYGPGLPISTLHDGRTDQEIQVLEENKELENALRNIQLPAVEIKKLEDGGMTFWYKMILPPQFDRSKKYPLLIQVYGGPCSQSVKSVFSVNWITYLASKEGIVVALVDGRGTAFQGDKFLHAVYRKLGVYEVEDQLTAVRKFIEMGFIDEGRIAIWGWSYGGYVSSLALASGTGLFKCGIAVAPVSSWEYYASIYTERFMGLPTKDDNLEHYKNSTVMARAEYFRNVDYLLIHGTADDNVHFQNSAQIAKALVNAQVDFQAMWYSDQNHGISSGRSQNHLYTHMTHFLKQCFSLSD
Source text: To determine if exemplary compounds of the invention can contribute to extend the half-life of hFGF21 in vivo, rats were orally dosed with vehicle or compound 13 (an exemplary compound) followed by sub-therapeutic dose of rhFGF21.
Male Sprague Dawley rats, approximately 7-8 weeks old (˜250 g), were obtained from the vivarium of Universidad Católica de Chile (Santiago, Chile). Animals were acclimated for a minimum period of 4 days upon arrival at the testing facility. At the day of study, two rats were anesthetized using sevoflurane and subjected to surgical implantation of catheters in carotid artery and jugular vein. Catheter plugs were fixed to the external ends of the catheters and kept patent using an anti-coagulant heparinized saline solution containing 25 U/mL Heparin (Fresenius Kabi, Laboratorio Sanderson) in 0.9% NaCl Apiroflex (Fresenius Kabi, Laboratorio Sanderson). After surgical recovery, rats were weighed and identified by marking the tail with numbers using a non-toxic permanent marker for designation of treatments described in Table 9.
Compound 13 (an exemplary compound) was formulated at 5 mg/ml in vehicle PEG200/dH2O (50/50, v/v) for oral administration and rhFGF21 was formulated in 0.9% NaCl Apiroflex at 100 μg/mL. […]

SMILES	tumor volume vs vehicle [1]	amount of rhFGF21 detected through time in the plasma ([2]; 50 mg/kg PO pre-treatment, then rhFGF21 90 μg/Kg IV)	plasma FAP activity ([2]; oral single dose of 50 mg/kg)
N#C[C@@H]1CC(F)(F)CN1C(=O)CNC(=O)c1ccncc1C1CC1 [Compound 24, (S)—N-(2-(2-cyano-4,4-difluoropyrrolidin-1-yl)-2-oxoethyl)-3-cyclopropylisonicotinamide]	smaller volume of tumor		
N#C[C@@H]1CC(F)(F)CN1C(=O)CNC(=O)c1ccncc1-c1ccccc1 [Compound 13, (S)—N-(2-(2-cyano-4,4-difluoropyrrolidin-1-yl)-2-oxoethyl)-3-phenylisonicotinamide]		increased	potently suppressed
